Earlier results in article PMC7584476, “Safety and efficacy of BAY1436032 in IDH1-mutant AML: phase I study results” (Leukemia, 2020).
Like-named read-outs stand apart in the source and are kept apart here.

Legend:
[1] = test system: primary AML samples; conditions: cited from earlier work
[2] = test system: mIDH1 AML; design: method as in PMID 29860938; conditions: cited from earlier work

Compound	Number of colony-forming cells [1]	Half-life [2]	≥grade 3 TEAE IDH DS [2]	≥grade 3 TEAE QT prolongation [2]	Median overall survival ([2]; similar populations, 95% CI 6.7–10.2)	Number of colony-forming cells ([1]; ref MH, unpublished)
CC(C)(O)CNc1nc(Nc2ccnc(C(F)(F)F)c2)nc(-c2cccc(C(F)(F)F)n2)n1 [enasidenib]	increased					
N#Cc1ccnc(N2C(=O)CC[C@H]2C(=O)N(c2cncc(F)c2)[C@H](C(=O)NC2CC(F)(F)C2)c2ccccc2Cl)c1 [ivosidenib]		72 to 138 h	4%	8%	8.8 months	increased
